Assays:
[1] = molecular target: T1, ULK1 kinase (Homo sapiens, UniProt O75385, E37A/K38A); assay: Biochemical assay for ULK1.3 (coupled pyruvate kinase/lactate dehydrogenase assay); conditions: 0.1 nM ULK1 (from Beryllium), peptide substrate, 1 mM ATP
T1 construct: (residues 1-283; ID NO: 2); purchased Beryllium
T1 sequence (O75385 1-283 E37A/K38A): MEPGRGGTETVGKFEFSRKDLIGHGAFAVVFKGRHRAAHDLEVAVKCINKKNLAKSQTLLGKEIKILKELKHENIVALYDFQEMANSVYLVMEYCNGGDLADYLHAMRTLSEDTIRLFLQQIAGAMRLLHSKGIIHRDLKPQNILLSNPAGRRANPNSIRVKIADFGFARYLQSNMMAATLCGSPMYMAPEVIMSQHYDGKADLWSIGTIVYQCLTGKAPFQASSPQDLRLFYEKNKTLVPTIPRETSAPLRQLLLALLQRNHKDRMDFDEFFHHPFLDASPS
Experimental: Example 175. Biochemical Assay for ULK1.3
Activity of ULK1 kinase was determined spectroscopically using a coupled pyruvate kinase/lactate dehydrogenase assay that continuously monitors the ATP hydrolysis-dependent oxidation of NADH (e.g., Schindler et al. Science (2000) 289: 1938-1942). Assays were conducted in 384-well plates (100 uL final volume) using 0.1 nM ULK1 (from Beryllium), 0.075 mM peptide substrate (YANWLAASIYLDGKKK (SEQ ID NO: 5)), 1.5 units pyruvate kinase, 2.1 units lactate dehydrogenase, 1 mM phosphoenol pyruvate, 0.28 mM NADH and 1 mM ATP in assay buffer (100 mM Tris, pH 7.5, 15 mM MgCl2, 0.5 mM DTT, 0.004% (w/v) BSA, and 0.004% Triton X-100). Inhibition of ULK1 was measured by adding serial diluted test compound (final assay concentration of 1% DMSO). A decrease in absorption at 340 nm was monitored continuously for 6 hours at 30° C. on a multi-mode microplate reader (BioTek). The reaction rate was calculated using the 2-3 h time frame. The reaction rate at each concentration of compound was converted to percent inhibition using controls (i.e. reaction with no test compound and reaction with a known inhibitor) and IC50 values were calculated using software routines in Prism (GraphPad software).

[2] = molecular target: T2, LRRK2 kinase (Homo sapiens, UniProt Q5S007); assay: Biochemical assay for LRRK2 (coupled pyruvate kinase/lactate dehydrogenase assay); conditions: 26.4 nM LRRK2 (residues 970-2528), 0.1 mM peptide substrate, 1 mM ATP
T2 construct: purchased Thermo Fisher
T2 sequence (Q5S007 with tags, fused parts or gaps): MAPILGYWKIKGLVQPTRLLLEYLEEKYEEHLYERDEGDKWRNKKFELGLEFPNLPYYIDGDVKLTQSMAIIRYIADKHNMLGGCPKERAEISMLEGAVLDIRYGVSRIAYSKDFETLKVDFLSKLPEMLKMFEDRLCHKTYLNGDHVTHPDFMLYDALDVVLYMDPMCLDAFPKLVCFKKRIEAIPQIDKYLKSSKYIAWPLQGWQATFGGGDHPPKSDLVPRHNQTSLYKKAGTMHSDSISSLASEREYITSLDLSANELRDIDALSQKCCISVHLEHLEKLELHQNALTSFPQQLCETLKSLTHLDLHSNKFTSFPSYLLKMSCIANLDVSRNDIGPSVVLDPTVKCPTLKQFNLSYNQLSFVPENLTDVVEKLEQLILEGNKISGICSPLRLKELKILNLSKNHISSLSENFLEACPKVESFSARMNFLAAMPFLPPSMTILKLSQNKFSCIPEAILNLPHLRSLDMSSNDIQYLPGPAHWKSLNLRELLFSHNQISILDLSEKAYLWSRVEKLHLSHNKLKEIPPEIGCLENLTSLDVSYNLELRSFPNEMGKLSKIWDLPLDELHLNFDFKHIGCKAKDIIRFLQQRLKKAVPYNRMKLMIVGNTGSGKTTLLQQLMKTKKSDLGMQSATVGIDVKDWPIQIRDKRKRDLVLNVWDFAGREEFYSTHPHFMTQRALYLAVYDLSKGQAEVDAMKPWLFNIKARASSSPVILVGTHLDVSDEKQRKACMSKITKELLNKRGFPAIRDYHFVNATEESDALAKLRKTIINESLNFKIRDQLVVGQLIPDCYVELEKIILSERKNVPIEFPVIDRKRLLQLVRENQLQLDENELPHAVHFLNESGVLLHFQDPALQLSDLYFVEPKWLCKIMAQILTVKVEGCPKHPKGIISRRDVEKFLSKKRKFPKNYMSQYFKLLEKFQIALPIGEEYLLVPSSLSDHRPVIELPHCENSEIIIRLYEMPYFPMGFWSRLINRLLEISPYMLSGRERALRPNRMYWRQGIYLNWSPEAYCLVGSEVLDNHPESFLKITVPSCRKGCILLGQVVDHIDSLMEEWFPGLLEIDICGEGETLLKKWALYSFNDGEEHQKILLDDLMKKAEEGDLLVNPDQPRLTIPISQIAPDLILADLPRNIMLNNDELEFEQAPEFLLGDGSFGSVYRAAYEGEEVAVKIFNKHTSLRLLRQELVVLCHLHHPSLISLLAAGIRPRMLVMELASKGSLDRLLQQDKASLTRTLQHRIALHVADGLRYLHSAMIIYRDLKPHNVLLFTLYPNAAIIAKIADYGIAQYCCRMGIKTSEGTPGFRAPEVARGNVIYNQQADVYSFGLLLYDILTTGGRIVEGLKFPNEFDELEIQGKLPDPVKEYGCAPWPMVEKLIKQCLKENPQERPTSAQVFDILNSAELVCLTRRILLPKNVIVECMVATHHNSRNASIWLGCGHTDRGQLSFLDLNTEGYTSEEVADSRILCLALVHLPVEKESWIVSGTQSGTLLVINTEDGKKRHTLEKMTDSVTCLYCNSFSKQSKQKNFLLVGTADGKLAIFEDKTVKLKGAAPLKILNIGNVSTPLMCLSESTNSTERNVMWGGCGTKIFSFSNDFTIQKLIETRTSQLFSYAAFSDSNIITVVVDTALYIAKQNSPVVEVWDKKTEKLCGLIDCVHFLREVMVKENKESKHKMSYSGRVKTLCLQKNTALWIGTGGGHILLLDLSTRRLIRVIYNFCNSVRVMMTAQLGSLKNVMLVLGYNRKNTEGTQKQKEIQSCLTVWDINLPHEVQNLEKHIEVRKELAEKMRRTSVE
Experimental: Example 182. Biochemical Assay for LRRK2 (SEQ. ID NO. 4)
Activity of LRRK2 kinase was determined spectroscopically using a coupled pyruvate kinase/lactate dehydrogenase assay that continuously monitors the ATP hydrolysis-dependent oxidation of NADH (e.g., Schindler et al. Science (2000) 289: 1938-1942). Assays were conducted in 384-well plates (100 uL final volume) using 26.4 nM LRRK2 (Thermo Fisher), 0.1 mM peptide substrate (RLGRDKYKTLRQIRQ (SEQ ID NO: 6)), 1.5 units pyruvate kinase, 2.1 units lactate dehydrogenase, 1 mM phosphoenol pyruvate, 0.28 mM NADH and 1 mM ATP in assay buffer (100 mM Tris, pH 7.5, 15 mM MgCl2, 0.5 mM DTT, 0.004% (w/v) BSA, and 0.004% Triton X-100). Inhibition of LRRK2 was measured by adding serial diluted test compound (final assay concentration of 1% DMSO). A decrease in absorption at 340 nm was monitored continuously for 6 hours at 30° C. on a multi-mode microplate reader (BioTek). The reaction rate was calculated using the 2-3 h time frame. The reaction rate at each concentration of compound was converted to percent inhibition using controls (i.e. reaction with no test compound and reaction with a known inhibitor) and IC50 values were calculated using software routines in Prism (GraphPad software).

[3] = test system: phospho-Serine 318 ATG13 (pATG13) in MiaPaCa-2 cells; assay: pATG13 levels of mutant KRas MiaPaCa-2 cells after treatment with ULK inhibitors in combination with trametinib (ELISA); format: cell-based, human
Experimental: Example 178. pATG13 Levels of Mutant KRas MiaPaCa-2 Cells after Treatment with ULK Inhibitors in Combination with Trametinib
MiaPaCa-2 human pancreatic cancer cells (10000 cells/well) were added to a 384-well tissue-culture treated plate in 50 μL of pre-warmed DMEM medium supplemented with 10% characterized fetal bovine serum (Invitrogen, Carlsbad, Calif.), 100 units/mL penicillin G, 100 μg/mL streptomycin, and 2.5% Horse Serum and allowed to grow overnight at 37° C., 5% CO2, and 95% humidity. The following day, 10 μL of media containing trametinib or DMSO as a control was added to wells. The final concentration of trametinib in wells was 250 nM. A dose response of a test compound (0.6 μL per well) was added. DMSO (0.6 μL) was added to control wells. The plate was briefly shaken to mix wells and then incubated at 37° C. overnight. The next day, the media was aspirated and cells were washed with Dulbecco's Phosphate Buffered Saline (Gibco). Cells were lysed using MPER lysis buffer (Pierce, Rockford, Ill.) containing Halt Phosphatase and Protease Inhibitors (Pierce, Rockford, Ill.) and Phosphatase inhibitor cocktail 2 (Sigma, St. Louis, Mo.) at 4° C. for 10 minutes with shaking.
Cellular levels of phospho-Serine 318 ATG13 (pATG13) were measured via an ELISA method. Total ATG13 Antibody (Cell Signaling Cat #13273) was used to coat the wells. The plate was incubated at 4° C. overnight and washed with ELISA wash buffer (Biolegend Cat #421601). The wells were then blocked with assay diluent (Biolegend Cat #421203) for 1 hour at room temperature. Plate wells were washed with ELISA wash buffer. Cell lysate was added to wells and incubated at room temperature for 2 hours. Plate wells were washed with ELISA wash buffer. Biotinylated pS318-ATG13 antibody (Rockland Immunochemicals Cat #600-401-C49) was diluted in assay diluent and added to each well and incubated at room temperature for 1 hour. Plate wells were washed with ELISA wash buffer. Streptavidin linked to horseradish peroxidase (Thermo Fisher Cat #21140) was diluted in assay diluent and added to each well and incubated at room temperature for 1 hour. Plate wells were washed with ELISA wash buffer. High sensitivity TMB substrate (Biolegend Cat #421101) was added to each well and incubated at room temperature for 20 minutes. The reaction was stopped with 2N Sulfuric Acid. The plate was analyzed at on a plate reader measuring absorbance at 450 nm and 540 nm (background). Signal was calculated by first subtracting the background absorbance at 540 nm from the absorbance at 450 nm for each well. Next, the background corrected absorbance at 450 nm from blank wells was subtracted from test wells. Data was compared to control wells to determine % ATG13 phosphorylation. GraphPad Prism was used to calculate IC50 values.

[4] = molecular target: T3, ULK1 kinase (Homo sapiens, UniProt O75385); assay: Biochemical assay for ULK1.2 (coupled pyruvate kinase/lactate dehydrogenase assay); conditions: 19 nM ULK1 (Eurofins), myelin basic protein, 1 mM ATP
T3 construct: purchased Eurofins 14-959
T3 sequence (O75385 with tags, fused parts or gaps): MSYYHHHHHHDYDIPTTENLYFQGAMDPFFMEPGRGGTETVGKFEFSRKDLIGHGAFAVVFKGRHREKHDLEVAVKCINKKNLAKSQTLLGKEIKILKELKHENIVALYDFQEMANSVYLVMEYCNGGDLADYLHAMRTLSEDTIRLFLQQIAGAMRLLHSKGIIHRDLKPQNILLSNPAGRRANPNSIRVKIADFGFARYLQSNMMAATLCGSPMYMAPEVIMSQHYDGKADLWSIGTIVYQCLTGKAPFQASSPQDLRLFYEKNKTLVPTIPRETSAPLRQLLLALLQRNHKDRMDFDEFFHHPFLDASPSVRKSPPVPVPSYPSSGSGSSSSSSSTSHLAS
Method in brief: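 NADH-coupled PK/LDH read-out at 340 nm, run with 19 nM ULK1, 0.25 mg/mL myelin basic protein and 1 mM ATP. Buffer was 100 mM Tris pH 7.5 with 15 mM MgCl2 and 1% DMSO final. Monitoring was continuous for 6 hours at 30° C; rates from the 2-3 h window were converted to percent inhibition and fitted to a four-parameter curve for IC50.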

[5] = test system: phospho-Serine 318 ATG13 (pATG13), ULK kinase substrate, in A549 (KRAS mutant) cells; assay: pATG13 levels of mutant KRas A549 cells after treatment with ULK inhibitors in combination with trametinib (ELISA); format: cell-based, human; conditions: with 250 nM trametinib
Method in brief: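 A549 cells grown overnight were treated overnight at 37 °C with a dose response of test compound plus 250 nM trametinib (final) or DMSO. Lysates were assayed by sandwich ELISA, with total ATG13 capture and biotinylated pS318-ATG13 detection read at 450 nm minus 540 nm, giving % phosphorylation against control and IC50.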

| Structure (SMILES) | IC50 [1] [nM] | IC50 [2] [nM] | further results |
| --- | --- | --- | --- |
| Cc1nn(C(C)(C)C(N)=O)cc1Nc1ncc(C(F)(F)F)c(NCCCN2CCCCC2=O)n1 [Example 67] | > 500 | 1 to 100 | – |
| Cc1nn([C@@H]2CCN(C)C2)cc1Nc1ncc(Cl)c(NCCCN2CCCOCC2=O)n1 [Example 113] | 100 to 500 | 100 to 300 | – |
| O=C1CCCCCN1CCCNc1nc(Nc2cnn(CCN3CCOCC3)c2)ncc1C(F)(F)F [Example 96] | – | – | IC50 [3]: 100 to 300 nM; IC50 [4]: 25 to 100 nM; IC50 [5]: 300 to 600 nM |
| CCc1nn(C2CCN(C(C)C)CC2)cc1Nc1ncc(Cl)c(NCCCN2CCCOC2=O)n1 [Example 73] | 100 to 500 | 300 to 600 | – |
| Cc1nn(C(C)(C)C(N)=O)cc1Nc1ncc(C(F)(F)F)c(NCCCN2CCOCCC2=O)n1 [Example 145] | 100 to 500 | 1 to 100 | – |
| Cc1nn(C(C)(C)C#N)cc1Nc1ncc(C(F)(F)F)c(NCCCN2CCCOCC2=O)n1 [Example 172, 2-methyl-2-(3-methyl-4-((4-((3-(3-oxo-1,4-oxazepan-4-yl)propyl)amino)-5-(trifluoromethyl)pyrimidin-2-yl)amino)-1H-pyrazol-1-yl)propanenitrile] | 100 to 500 | 1 to 100 | – |
| Cc1nn(CCN(C)C)cc1Nc1ncc(C(F)(F)F)c(NCCCN2CCOCCC2=O)n1 [Example 137] | 100 to 500 | – | – |
| CCN(CC)CCn1cc(Nc2ncc(C(F)(F)F)c(NCCCN3CCOCCC3=O)n2)c(C)n1 [Example 146] | 100 to 500 | – | – |
| Cc1nn(CCN(C)C)cc1Nc1ncc(Br)c(NCCCN2CCOCCC2=O)n1 [Example 144] | 100 to 500 | – | – |
| Cc1nn(C2CCN(C(C)C)CC2)cc1Nc1ncc(Cl)c(NCCCN2CCOCCC2=O)n1 [Example 143] | 100 to 500 | – | – |
| CCc1nn(C2CCN(C)CC2)cc1Nc1ncc(C(F)(F)F)c(NCCCN2CCOCCC2=O)n1 [Example 136] | 1 to 25 | – | – |
| Cc1nn(C2CCN(C(C)C)CC2)cc1Nc1ncc(C2CC2)c(NCCCN2CCOCC2=O)n1 [Example 75] | > 500 | – | – |
| Cc1nn(CCCN2CCOCC2)cc1Nc1ncc(C2CC2)c(NCCCN2CCOCCC2=O)n1 [Example 139] | > 500 | > 600 | – |
| Cc1nn(CCN(C)C)cc1Nc1ncc(C(F)(F)F)c(NCCCN2CCCOCC2=O)n1 [Example 117] | 25 to 100 | – | – |
| Cc1nn(CCCN2CCOCC2)cc1Nc1ncc(Br)c(NCCCN2CCCOCC2=O)n1 [Example 121] | 100 to 500 | – | – |
| Cc1nn(C(C)(C)C(N)=O)cc1Nc1ncc(C(F)(F)F)c(NCCCN2CCCOCC2=O)n1 [Example 125, 2-methyl-2-(3-methyl-4-((4-((3-(3-oxo-1,4-oxazepan-4-yl)propyl)amino)-5-(trifluoromethyl)pyrimidin-2-yl)amino)-1H-pyrazol-1-yl)propanamide] | > 500 | 1 to 100 | – |
| Cc1nn(CCN(C)C)cc1Nc1ncc(Br)c(NCCCN2CCCOCC2=O)n1 [Example 122] | 100 to 500 | 100 to 300 | – |
| Cc1nn(C2CCN(C(C)C)CC2)cc1Nc1ncc(C2CC2)c(NCCCN2CCCOCC2=O)n1 [Example 114] | > 500 | > 600 | – |
| CCc1nn(C2CCN(C(C)C)CC2)cc1Nc1ncc(C2CC2)c(NCCCN2CCOCC2=O)n1 [Example 76] | > 500 | > 600 | – |
| Cc1nn(CCN(C)C)cc1Nc1ncc(Cl)c(NCCCN2CCCOCC2=O)n1 [Example 123] | > 500 | > 600 | – |
| CCN1CCC(n2cc(Nc3ncc(C4CC4)c(NCCCN4CCOCCC4=O)n3)c(C)n2)CC1 [Example 142] | > 500 | – | – |
| Cc1nn(CCN(C)C)cc1Nc1ncc(C2CC2)c(NCCCN2CCCOCC2=O)n1 [Example 116] | > 500 | > 600 | – |
| Cc1nn(CCCN2CCOCC2)cc1Nc1ncc(Cl)c(NCCCN2CCCOCC2=O)n1 [Example 120] | > 500 | – | – |
| Cc1nn(CCN(C)C)cc1Nc1ncc(C2CC2)c(NCCCN2CCOCCC2=O)n1 [Example 140] | > 500 | > 600 | – |
| Cc1nn(C2CCN(C)CC2)cc1Nc1ncc(C2CC2)c(NCCCN2CCOCCC2=O)n1 [Example 141] | 100 to 500 | > 600 | – |
| CCc1nn(C2CCN(C)CC2)cc1Nc1ncc(C2CC2)c(NCCCN2CCCOCC2=O)n1 [Example 119] | > 500 | – | – |
| Cc1cn(C2CCN(C)CC2)nc1Nc1ncc(C(F)(F)F)c(NCCCN2CCCOC2=O)n1 [Example 126] | > 500 | > 600 | – |
| Cc1nn(CCCN2CCOCC2)cc1Nc1ncc(C2CC2)c(NCCCN2CCCOCC2=O)n1 [Example 115] | > 500 | > 600 | – |
